Ends that are not written are not given here.
Test system: Male SD rats
Assay: Measurement of food intake after intravenous administration
Format: in vivo
Conditions: test conditions not stated for this peptide
Method: Male SD rats (Sprague-Dawley, body weight of 275±25 g) were housed and fed in 45×23×15-cm APECR cages, five rats per cage. The rats were acclimated for 1 week or more on a 12-h light/12-h dark cycle at a room temperature of 22 to 24° C. and a humidity of 60 to 80% with free access to food and water before the test. The rats used for the test were fasted for 12 hours overnight before initiation of the test. After fasting, the samples to be tested as the food intake regulator were dissolved in saline and the dissolved test samples were intravenously given (150 μg/body) to the rats, respectively, in the treatment group and, then, their food intakes were measured 1, 2, 4, and […] administration. In contrast, in the control group, saline was intravenously given and their food intakes were measured in the same way.

**Q.** Which “food intake regulation activity” value does the source give for GRVYRPCWQV [SEQ ID NO: 34] here?
**A.** no food intake regulation activity

Source: US8283311B2, “Peptide-containing food intake regulator” (Maruha Nichiro Foods, Inc., priority 2008, dated 2012)
